Data: paper PMC9043818, “Coordination complexes of zinc and manganese based on pyridine-2,5-dicarboxylic acid N-oxide: DFT studies and antiproliferative activities consideration” (RSC Advances, 2021)
Read-outs that look alike come from different tables or passages of the source.

Assays:
[1] = test system: human cervix epithelial carcinoma HeLa; assay: MTT antiproliferative assay, HeLa; type: cell-based; details: 72 h incubation, mean ± SD
Description: (§1) Human breast cancer cells MDA-MD-231 (ATCC HTB-26), human breast cancer cells MCF-7 (ATCC HTB-22), human cervix epithelial carcinoma HeLa (ATCC CCL-2), human colon cancer cell line HT-29 (ATCC HTB-38), mouse neuroblastoma cell line Neuro-2a (ATCC CCL-131) and mouse fibroblast L-929 cell line (ATCC CCL-1) were obtained from the American Type Culture Collection (ATCC; Manassas, VA, USA) and cultured at 37 °C in a humidified atmosphere of 5% CO2 in air. HeLa cells were cultured in Dulbecco's Modified Eagle's Medium (DMEM) with 0.1 mM nonessential amino acids, 2 mM L-glutamine, 1.0 mM sodium pyruvate and 5% fetal bovine serum, at 37 °C in an atmosphere of 5% CO2. Cells were plated in 96-well sterile plates at a density of 1 × 10^4 cells per well in 100 μL of medium and incubated for 24 h. Also MDA-MD-231, HT-29, MCF-7 and Neuro-2a were cultured in DMEM containing 10% fetal bovine serum, 100 units per ml of penicillin and 100 μg ml^−1 of streptomycin. L-929 cells were cultured in RPMI-1640 medium containing 10% fetal bovine serum, 100 units per ml of penicillin and 100 μg ml^−1 of streptomycin.
(§2) Complexes 1–3 ([Mn2(pydco)2(bpy)2(H2O)2]·2H2O (1), [Zn(bpy)(Hpydco)2] (2) and [Zn(bpy)Cl(Hpydco)]·2H2O (3)) were screened for antiproliferative activity against human breast cancer cells (MDA-MD-231), human cervix epithelial carcinoma (HeLa), human colon cancer cell line (HT-29), human breast cancer cells (MCF-7), mouse neuroblastoma cell line (Neuro-2a) and mouse fibroblast L-929 cell line using cisplatin as a comparative standard. Cell viability was evaluated by a colorimetric method based on the tetrazolium salt MTT ([3-(4,5-dimethylthiazol-2-yl)-2,5-diphenyltetrazolium bromide]), which is reduced by living cells to yield purple formazan crystals. Cells were seeded in 96-well plates at a density of 2–5 × 10^4 cells of MDA-MD-231, MCF-7, HeLa, HT-29, Neuro-2a and L-929 per well in 200 μL of culture medium and left to incubate overnight for optimal adherence. After careful removal of the medium, 200 μL of a dilution series of the complexes in fresh medium were added and incubation was performed at 37 °C/5% CO2 for 72 h. Complexes 1–3 were first solubilized in DMSO, diluted in medium and added to the cells in final concentrations between 20 nM and 200 μM. […] Cisplatin was first solubilized in saline and then added at the same concentrations used for the other complexes. At the end of the incubation period, the complexes were removed, and the cells were incubated with 200 μL of MTT solution (500 μg ml^−1). After 3–4 h at 37 °C/5% CO2, the medium was removed, and the purple formazan crystals were dissolved in 200 μL of DMSO by shaking. The cell viability was evaluated by measurement of the absorbance at 570 nm by using a STAT FAX-2100 microplate reader (Awareness Technology, Palm City, FL, USA). The cell viability was calculated by dividing the absorbance of each well by that of the control wells (cells treated with medium containing 1% DMSO). Each experiment was repeated at least three times and each point was determined in at least three replicates.
(§3) IC50 values are expressed as mean ± standard deviation (SD) from at least three independent experiments. Statistical tests including One way ANOVA, Tukey multiple comparison or unpaired Student's t-tests were performed using SPSS, ver.17 software. A p value of less than 0.05 was considered as significant.

[2] = test system: mouse fibroblast L-929 cell line; assay: MTT assay, normal cell line L929; type: cell-based; details: IC50 > 100 μM considered inactive, read-out: IC50 ± SD L929
Description: as §1, §2, §3

[3] = test system: human colon cancer cell line HT-29; assay: MTT antiproliferative assay, HT-29; type: cell-based; details: mean ± SD
Description: as §1, §2, §3

[4] = test system: mouse neuroblastoma cell line Neuro-2a; assay: MTT antiproliferative assay, Neuro-2a; type: cell-based; details: 72 h incubation, mean ± SD
Description: as §1, §2, §3

[5] = test system: human breast cancer cells MDA-MD-231; assay: MTT antiproliferative assay, MDA-MD-231; type: cell-based; details: 72 h incubation, mean ± SD
Description: as §1, §2, §3

[6] = test system: human breast cancer cells MCF-7; assay: MTT antiproliferative assay, MCF-7; type: cell-based; details: mean ± SD
Description: as §1, §2, §3

[7] = test system: MDA-MD-231, MCF-7, HeLa, HT-29, Neuro-2a and L-929 cell lines; assay: MTT assay, range over all cell lines; type: cell-based; details: 72 h, all six cell lines, read-out: IC50 values, span over all cell lines
Description: Human breast cancer cells MDA-MD-231 (ATCC HTB-26), human breast cancer cells MCF-7 (ATCC HTB-22), human cervix epithelial carcinoma HeLa (ATCC CCL-2), human colon cancer cell line HT-29 (ATCC HTB-38), mouse neuroblastoma cell line Neuro-2a (ATCC CCL-131) and mouse fibroblast L-929 cell line (ATCC CCL-1) were obtained from the American Type Culture Collection (ATCC; Manassas, VA, USA) and cultured at 37 °C in a humidified atmosphere of 5% CO2 in air. HeLa cells were cultured in Dulbecco's Modified Eagle's Medium (DMEM) with 0.1 mM nonessential amino acids, 2 mM L-glutamine, 1.0 mM sodium pyruvate and 5% fetal bovine serum, at 37 °C in an atmosphere of 5% CO2. […]
Complexes 1–3 ([Mn2(pydco)2(bpy)2(H2O)2]·2H2O (1), [Zn(bpy)(Hpydco)2] (2) and [Zn(bpy)Cl(Hpydco)]·2H2O (3)) were screened for antiproliferative activity against human breast cancer cells (MDA-MD-231), human cervix epithelial carcinoma (HeLa), human colon cancer cell line (HT-29), human breast cancer cells (MCF-7), mouse neuroblastoma cell line (Neuro-2a) and mouse fibroblast L-929 cell line using cisplatin as a comparative standard. Cell viability was evaluated by a colorimetric method based on the tetrazolium salt MTT ([3-(4,5-dimethylthiazol-2-yl)-2,5-diphenyltetrazolium bromide]), which is reduced by living cells to yield purple formazan crystals. […]

[8] = test system: MDA-MB-231 cancer cell line; assay: Apoptosis assay by flow cytometry (Annexin V-FITC/PI); type: cell-based, human; details: for induction of apoptosis (flow cytometry): MDA-MB-231, 24 h; for induction of apoptosis (flow cytometry) / Apoptotic cells (%) / Late apoptotic/necrotic cells (%) / Necrotic cells (%) / Vital cells (%): concentration close to the IC50; for population of apoptotic cell, fold higher than cisplatin: at the same concentration as cisplatin; for Apoptotic cells (%) / Late apoptotic/necrotic cells (%) / Necrotic cells (%) / Vital cells (%): MDA-MD-231, 24 h
Description: In order to study in which way 1–3 produced the cellular death (necrosis or apoptosis) studies of flow cytometry were performed on the complexes and cisplatin as a reference. Four areas in the diagrams stand for necrotic cells (Q1, low Annexin V-FITC and high PI signal, left square on the top), late apoptosis or necrosis cells (Q2, high Annexin V-FITC and high PI signal, right square on the top), live cells (Q3, low Annexin V-FITC and low PI signal, left square at the bottom), apoptosis cells (Q4, high Annexin V-FITC and low PI signal, right square at the bottom), respectively.

[9] = test system: MDA-MB-231 breast cancer cells; assay: TUNEL assay (dUTP-FITC, confocal microscopy); type: cell-based, human; details: MDA-MB-231, 24 h, vs 0.3% DMSO controls
Description: Analysis of apoptosis for 2 and 3 by cytometry using TUNEL assay. Also, apoptosis was detected using an in situ cell death detection kit (Boehringer Mannheim Corp., Indianapolis, IN) as described by Narla et al. and Zhu et al. (Narla et al., 2000;[42] Zhu et al., 1998 (ref. [43])). Cells were incubated with 1–3 in 0.3% DMSO or 1 : […], permeabilized and incubated with the reaction mixture containing TdT- and FITC-conjugated dUTP, and counterstained with propidium iodide. Cells were transferred to slides and viewed with a confocal laser scanning microscope (Bio-Rad MRC 1024) mounted on a Nikon Eclipse E800 series upright microscope as reported previously (Narla et al., 2000;[42] Zhu et al., 1998 (ref. [43])).

[10] = Mus musculus, L929, 72 h incubation
[11] = Homo sapiens, HT-29, 72 h incubation
[12] = Homo sapiens, MCF7, 72 h incubation
[13] = experiment for 2 (Table 4), 2 and cisplatin at the same concentration
[14] = experiment for 3 (Table 5), 3 and cisplatin at the same concentration, MDA-MB-231

Compound: c1ccc(-c2ccccn2)nc1 [bpy, 2,2′-bipyridine, reference compound]
- IC50 ([1]; Homo sapiens, HeLa): 46.5 ± 4.03 µM
- IC50 [2, 10]: > 100 µM
- IC50 [3, 11]: 67.8 ± 5.54 µM
- IC50 ([4]; mouse/rat NG108-15, N2a): 97.3 ± 8.7 µM
- IC50 ([5]; Homo sapiens): 24.9 ± 1.98 µM
- IC50 [6, 12]: 51.3 ± 4.78 µM

Compound: [Zn(bpy)(Hpydco)2] [Complex 2]
- IC50 [1]: 41.2 ± 5.07 µM
- IC50 [7]: 5.94 to 100 µM
- IC50 ([2]; 72 h incubation): > 100 µM
- induction of apoptosis (flow cytometry) [8]: could induce apoptosis
- population of apoptotic cell, fold higher than cisplatin ([8]; MDA-MB-231): ~1.2 fold
- population of apoptotic cell (apoptotic + late apoptotic) [8, 13]: 79.45%
- Apoptotic cells (%) ([8]; experiment for 2): 43.91%
- Late apoptotic/necrotic cells (%) ([8]; experiment for 2): 35.54%
- Necrotic cells (%) ([8]; experiment for 2): 0.82%
- Vital cells (%) ([8]; experiment for 2): 19.73%
- IC50 ([3]; 72 h incubation): 17.3 ± 2.57 µM
- IC50 [4]: 81.2 ± 9.28 µM
- IC50 [5]: 5.94 ± 1.98 µM
- IC50 ([6]; 72 h incubation): 15.6 ± 3.24 µM
- induction of apoptosis (TUNEL, apoptotic nuclei) [9]: induce apoptosis

Compound: [Zn(bpy)Cl(Hpydco)]·2H2O [Complex 3]
- IC50 [1]: 37.6 ± 4.61 µM
- IC50 [7]: 5.94 to 100 µM
- IC50 ([2]; 72 h incubation): > 100 µM
- induction of apoptosis (flow cytometry) [8]: could induce apoptosis
- population of apoptotic cell, fold higher than cisplatin ([8]; MDA-MB-231): ~1.8 fold
- population of apoptotic cell (apoptotic + late apoptotic) [8, 14]: 63.3%
- Apoptotic cells (%) ([8]; experiment for 3): 4.30%
- Late apoptotic/necrotic cells (%) ([8]; experiment for 3): 59.00%
- Necrotic cells (%) ([8]; experiment for 3): 4.70%
- Vital cells (%) ([8]; experiment for 3): 32.00%
- IC50 ([3]; 72 h incubation): 14.6 ± 3.55 µM
- IC50 [4]: 87.7 ± 6.93 µM
- IC50 [5]: 9.18 ± 2.25 µM
- IC50 ([6]; 72 h incubation): 17.9 ± 2.66 µM
- induction of apoptosis (TUNEL, apoptotic nuclei) [9]: induce apoptosis

Compound: [Mn2(pydco)2(bpy)2(H2O)2]·2H2O [Complex 1]
- IC50 [1]: 39.2 ± 2.98 µM
- IC50 ([2]; 72 h incubation): > 100 µM
- IC50 ([3]; 72 h incubation): 57.9 ± 4.71 µM
- IC50 [4]: 79.5 ± 8.44 µM
- IC50 [5]: 28.9 ± 2.47 µM
- IC50 ([6]; 72 h incubation): 56.6 ± 7.78 µM

Compound: O=C(O)c1ccc(C(=O)O)[n+]([O-])c1 [Complex H2pydco, pyridine-2,5-dicarboxylic acid N-oxide]
- IC50 ([1]; Homo sapiens, HeLa): 67.1 ± 5.45 µM
- IC50 [2, 10]: > 100 µM
- IC50 [3, 11]: 58.9 ± 5.01 µM
- IC50 ([4]; mouse/rat NG108-15, N2a): > 100 µM
- IC50 ([5]; Homo sapiens): 45.7 ± 4.75 µM
- IC50 [6, 12]: 57.9 ± 5.33 µM

Compound: N.N.[Cl][Pt][Cl] [Cisplatin, cisplatin, reference compound]
- IC50 [1]: 0.45 ± 0.13 µM
- IC50 ([2]; 72 h incubation): 0.7 ± 0.2 µM
- population of apoptotic cell (apoptotic + late apoptotic) [8, 13]: 65.28%
- Apoptotic cells (%) ([8]; experiment for 2): 34.65%
- Late apoptotic/necrotic cells (%) ([8]; experiment for 2): 30.63%
- Necrotic cells (%) ([8]; experiment for 2): 0.98%
- Vital cells (%) ([8]; experiment for 2): 33.74%
- population of apoptotic cell (apoptotic + late apoptotic) [8, 14]: 35.8%
- Apoptotic cells (%) ([8]; experiment for 3): 15.80%
- Late apoptotic/necrotic cells (%) ([8]; experiment for 3): 20.00%
- Necrotic cells (%) ([8]; experiment for 3): 3.20%
- Vital cells (%) ([8]; experiment for 3): 61.00%
- IC50 ([3]; 72 h incubation): 19.3 ± 3.46 µM
- IC50 [4]: 103 ± 9.8 µM
- IC50 [5]: 24.7 ± 4.71 µM
- IC50 ([6]; 72 h incubation): 5.94 ± 1.47 µM
